This assay has as its target T1, sGC α1/β1 heterodimer (Homo sapiens, UniProt Q02108+Q02153).
T1 construct: expressed in transfected cells; host or cells: CHO-K1 (clone #7, CHO-K1/sGC)
T1 sequence (Q02108 1-690): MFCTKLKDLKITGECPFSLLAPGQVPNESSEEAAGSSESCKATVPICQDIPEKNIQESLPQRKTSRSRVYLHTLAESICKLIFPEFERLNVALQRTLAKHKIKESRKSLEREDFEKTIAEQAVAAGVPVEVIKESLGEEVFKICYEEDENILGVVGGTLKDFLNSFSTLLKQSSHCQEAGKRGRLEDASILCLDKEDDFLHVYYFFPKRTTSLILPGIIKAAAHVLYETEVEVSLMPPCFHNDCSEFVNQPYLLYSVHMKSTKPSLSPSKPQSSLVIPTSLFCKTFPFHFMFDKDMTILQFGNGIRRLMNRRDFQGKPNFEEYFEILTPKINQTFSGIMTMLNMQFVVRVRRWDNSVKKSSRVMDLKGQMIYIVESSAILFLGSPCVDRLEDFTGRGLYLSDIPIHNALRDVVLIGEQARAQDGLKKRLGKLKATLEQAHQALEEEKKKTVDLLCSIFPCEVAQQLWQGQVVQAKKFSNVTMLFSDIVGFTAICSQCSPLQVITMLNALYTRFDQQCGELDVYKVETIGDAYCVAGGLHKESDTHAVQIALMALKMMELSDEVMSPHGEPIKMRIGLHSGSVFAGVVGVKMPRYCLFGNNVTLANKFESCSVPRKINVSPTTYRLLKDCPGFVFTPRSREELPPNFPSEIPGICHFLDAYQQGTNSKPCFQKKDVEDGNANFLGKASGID
T1 sequence (Q02153 1-619): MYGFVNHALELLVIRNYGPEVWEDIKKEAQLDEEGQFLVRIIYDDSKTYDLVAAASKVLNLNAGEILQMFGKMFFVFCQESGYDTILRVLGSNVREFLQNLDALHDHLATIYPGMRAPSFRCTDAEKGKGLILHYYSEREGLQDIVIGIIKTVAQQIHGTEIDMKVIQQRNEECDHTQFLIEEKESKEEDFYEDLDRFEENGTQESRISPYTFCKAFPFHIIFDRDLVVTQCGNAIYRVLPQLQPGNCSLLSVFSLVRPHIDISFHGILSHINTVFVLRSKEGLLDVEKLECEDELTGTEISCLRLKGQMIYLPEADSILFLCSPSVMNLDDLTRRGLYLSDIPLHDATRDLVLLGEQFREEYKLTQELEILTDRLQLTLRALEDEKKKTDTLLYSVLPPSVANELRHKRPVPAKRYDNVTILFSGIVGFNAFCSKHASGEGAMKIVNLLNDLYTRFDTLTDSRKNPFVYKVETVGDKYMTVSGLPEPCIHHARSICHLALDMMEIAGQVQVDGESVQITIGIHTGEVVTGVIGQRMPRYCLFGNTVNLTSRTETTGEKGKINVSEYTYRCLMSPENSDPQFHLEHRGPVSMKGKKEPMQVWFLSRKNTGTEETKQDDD
Put plainly: Cell-Based sGC Functional Assay (CASA Assay), cGMP by HTRF in CHO-K1/sGC cells. As to conditions: for EC50: cGMP production, 1 hr at 37° C., 4P fit, presence or absence of 1 μM DETA-NO not given, read-out: IP (nM) (inflection point); for % Act.: percent activation relative to maximum cGMP production of Compound A (= 100%); for Emax: CHO-K1, percent activation relative to maximum cGMP production of Compound A (= 100%), read-out: % Act. From the text:
Biological Assay 1: Cell-Based sGC Functional Assay (CASA Assay)
sGC is a heme-containing enzyme that converts GTP to secondary messenger cGMP. Increases in cGMP levels affect several physiological processes including vasorelaxation through multiple downstream pathways. […] Heme-dependent activators (HDAs) preferentially activate sGC containing a ferrous heme group. To determine the effect of sGC activators on enzyme activity, the CASA assay was developed to monitor the generation of cGMP in a cell line that stably expresses the heterodimeric sGC protein.
A CHO-K1 cell line stably expressing the sGC α1/β1 heterodimer was generated using a standard transfection protocol. CHO-K1 cells were transfected with plasmids pIREShyghsGCα1 and pIRESneo-hsGCβ1 simultaneously using FUGENE reagent. Clones that stably express both subunits were selected with hygromycin and neomycin for ˜2 weeks. Clone #7 was chosen for the assay and was designated CHO-K1/sGC. CHO-K1/sGC cells were maintained in F-K12 medium containing 10% heat-inactivated Fetal Bovine Serum (FBS), 100 μg/mL penicillin/streptomycin, 0.5 mg/mL hygromycin and 0.25 mg/mL G418. The cells were then cryopreserved in LN2. On the day of the assay, cells were thawed and resuspended in EBSS Assay Buffer (Sigma, E3024) supplemented with 5 mM MgCl2, 10 mM HEPES (4-(2-hydroxyethyl)piperazine-1-ethanesulfonic acid) and 0.05% BSA (bovine serum albumin) (EAB) and cell density was then adjusted to 4×10^5/mL with EAB. IBMX (3-isobutyl-1-methylxanthin, 0.5 mM) was added to inhibit degradation of cGMP. Compounds were diluted from DMSO stock solutions and added to the assay at a final DMSO concentration of 2.5%. Cells were incubated with compounds in the presence and absence of 1 μM of Diethylenetriamine/nitric oxide adduct (DETA-NO; Sigma, 17018) for 1 hr at 37° C. At the end of the incubation period, the reaction was terminated and the cells were lysed with the detection reagents from Cisbio Kits. The level of intracellular cGMP was determined using an HTRF-based assay kit (CisBio, 62GM2PEC), which detects the displacement of a fluorescence labeled cGMP from its specific antibody. The cGMP produced by test compounds was directly compared to the maximum cGMP production (this value was set to equal 100% activation.) of the published sGC-HDA Compound A:
[drawing 175] (Example 1 in WO 2010/065275, published Jun. 10, 2010). The test compounds' activities were then expressed as a percentage of Compound A, the standard in every experiment. This percent activation was calculated either in the presence or absence of DETA-NO which was then plotted. IP and maximum fold induction was derived using ADA analysis software for 4P fit.
The compounds in the Examples of the instant invention had inflection points (IP) less than or equal to 10 μM and most less than or equal to about 1 μM.
In general terms: Time-resolved FRET reads energy transfer from a long-lived donor to a nearby acceptor.

For the compound `O=C1Nc2nc(-c3cn4ccnc4c(Cc4ccccc4F)n3)ncc2C1(C(=O)NC1CC1)C1CC1` (single isomer, unassigned) [Example 70A, N,5-dicyclopropyl-2-(8-(2-fluorobenzyl)imidazo[1,2-a]pyrazin-6-yl)-6-oxo-6,7-dihydro-5H-pyrrolo[2,3-d]pyrimidine-5-carboxamide], the EC50 was determined as 179 nM and the “% Act.” value was found to be 169%.

Regarding `CCCCc1nc(-c2ncc3c(n2)NC(=O)C3(c2ccc(Cl)cc2F)C2CC2)cn2ccnc12` (stereo not drawn) [Example 45A, 2-(8-butylimidazo[1,2-a]pyrazin-6-yl)-5-(4-chloro-2-fluorophenyl)-5-cyclopropyl-5H-pyrrolo[2,3-d]pyrimidin-6(7H)-one], the Emax came to 93% and the EC50 was 5 nM.

With `CC1(c2ccc(F)cc2)C(=O)Nc2nc(-c3cn4ccnc4c(CC4CCC4)n3)ncc21` (stereo not drawn) [Example 63A, 2-(8-(cyclobutylmethyl)imidazo[1,2-a]pyrazin-6-yl)-5-(4-fluorophenyl)-5-methyl-5H-pyrrolo[2,3-d]pyrimidin-6(7H)-one], the Emax was 107% and the EC50 came out at 10 nM.

As for `O=C1Nc2nc(-c3cn4ccnc4c(CCC(F)(F)C(F)(F)F)n3)ncc2C1(c1ccc(Cl)cn1)C1CC1` (stereo not drawn) [Example 7A, 5-(5-chloropyridin-2-yl)-5-cyclopropyl-2-(8-(3,3,4,4,4-pentafluorobutyl)imidazo[1,2-a]pyrazin-6-yl)-5H-pyrrolo[2,3-d]pyrimidin-6(7H)-one], the Emax worked out at 113% and the EC50 amounted to 343 nM.

With `Cc1nc(-c2cn3ccnc3c(CCC(F)(F)C(F)(F)F)n2)nc2c1C(C)(c1ccc(F)cc1)C(=O)N2` (stereo not drawn) [Example 77A, 5-(4-fluorophenyl)-4,5-dimethyl-2-(8-(3,3,4,4,4-pentafluorobutyl)imidazo [1,2-a]pyrazin-6-yl)-5H-pyrrolo[2,3-d]pyrimidin-6(7H)-one], the Emax turned out to be 117% and the EC50 turned out to be 170 nM.

`CCCCc1nc(-c2ncc3c(n2)NC(=O)C3(c2ccc(Cl)c(F)c2)C2CC2)cn2ccnc12` (stereo not drawn) [Example 47A, 2-(8-butylimidazo[1,2-a]pyrazin-6-yl)-5-(4-chloro-3-fluorophenyl)-5-cyclopropyl-5H-pyrrolo[2,3-d]pyrimidin-6(7H)-one]: the Emax amounted to 123% and the EC50 worked out at 11 nM.

Turning to `CCCc1nc(-c2nc(O)c3c(n2)NC(=O)C3(C)c2ccc(Cl)cc2)cn2ccnc12` (stereo not drawn) [Example 14A, 5-(4-chlorophenyl)-4-hydroxy-5-methyl-2-(8-propylimidazo[1,2-a]pyrazin-6-yl)-5H-pyrrolo[2,3-d]pyrimidin-6(7H)-one], the Emax came out at 92% and the EC50 stood at 657 nM.

On to `CC1(c2ccc(Cl)cn2)C(=O)Nc2nc(-c3cn4c(N)cnc4c(CCC(F)(F)C(F)(F)F)n3)ncc21` (stereo not drawn) [Example 87A, 2-(3-Amino-8-(3,3,4,4,4-pentafluorobutyl)imidazo[1,2-a]pyrazin-6-yl)-5-(5-chloropyridin-2-yl)-5-methyl-5H-pyrrolo[2,3-d]pyrimidin-6(7H)-one], for which the Emax worked out at 130% and the EC50 was determined as 316 nM.

Regarding `CCCc1nc(-c2nc(O)c3c(n2)NC(=O)C3(C)c2ccc(Cl)c(F)c2)cn2ccnc12` (stereo not drawn) [Example 15B, 5-(4-chloro-3-fluorophenyl)-4-hydroxy-5-methyl-2-(8-propylimidazo[1,2-a]pyrazin-6-yl)-5H-pyrrolo[2,3-d]pyrimidin-6(7H)-one], the Emax is 84% and the EC50 was 702 nM.

Take `CC1(C(=O)NC2CC2)C(=O)Nc2nc(-c3cn4ccnc4c(Cc4ccc(F)cc4)n3)ncc21` (single isomer, unassigned) [Example 67B, N-Cyclopropyl-2-(8-(4-fluorobenzyl)imidazo[1,2-a]pyrazin-6-yl)-5-methyl-6-oxo-6,7-dihydro-5H-pyrrolo[2,3-d]pyrimidine-5-carboxamide]: the EC50 came to 936 nM and the “% Act.” value was 149%.

As to `CC1(c2ccc(F)cn2)C(=O)Nc2nc(-c3cn4ccnc4c(CCCC(F)(F)F)n3)nc(C3CC3)c21` (stereo not drawn) [Example 73B, 4-cyclopropyl-5-(5-fluoropyridin-2-yl)-5-methyl-2-(8-(4,4,4-trifluorobutyl)imidazo[1,2-a]pyrazin-6-yl)-5H-pyrrolo[2,3-d]pyrimidin-6(7H)-one], the Emax was 125% and the EC50 came out at 18 nM.

On to `CC1(c2ccc(Cl)cc2)C(=O)Nc2nc(-c3cn4ccnc4c(OCCC4CC4)n3)nc(O)c21` (stereo not drawn) [Example 94A, 5-(4-Chlorophenyl)-2-(8-(2-cyclopropylethoxy)imidazo[1,2-a]pyrazin-6-yl)-4-hydroxy-5-methyl-5H-pyrrolo[2,3-d]pyrimidin-6(7H)-one], for which the Emax worked out at 90% and the EC50 was 136 nM.

`CC1(c2ccc(Cl)cn2)C(=O)Nc2nc(-c3cn4ccnc4c(CC4CCC4)n3)ncc21` (stereo not drawn) [Example 58A, 5-(5-chloropyridin-2-yl)-2-(8-(cyclobutylmethyl)imidazo[1,2-a]pyrazin-6-yl)-5-methyl-5H-pyrrolo[2,3-d]pyrimidin-6(7H)-one]: the Emax came out at 150% and the EC50 was found to be 81 nM.

On to `CC1(c2ccc(F)cc2)C(=O)Nc2nc(-c3cn4ccnc4c(Cc4ccc(F)cc4)n3)ncc21` (stereo not drawn) [Example 80A, 2-(8-(4-fluorobenzyl)imidazo[1,2-a]pyrazin-6-yl)-5-(4-fluorophenyl)-5-methyl-5H-pyrrolo[2,3-d]pyrimidin-6(7H)-one], for which the Emax is 111% and the EC50 came to 122 nM.

`O=C1Nc2nc(-c3cn4ccnc4c(CCCC(F)(F)F)n3)ncc2C1(c1ccc(F)cc1)C1CC1` (stereo not drawn) [Example 60B, 5-cyclopropyl-5-(4-fluorophenyl)-2-(8-(4,4,4-trifluorobutyl)imidazo[1,2-a]pyrazin-6-yl)-5H-pyrrolo[2,3-d]pyrimidin-6(7H)-one]: the Emax was 126% and the EC50 came to 30 nM.

(Values after US10213429B2, “Imidazo-pyrazinyl derivatives useful as soluble guanylate cyclase activators” (Merck Sharp & Dohme Corp., priority 2015, dated 2019).)
